According to PubChem BioAssay (NCI):
Where “and” joins values, the source holds several entries; their conditions need not be identical. Identical values can stand only once.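 Protocol summary: plate cells (96-well), add compound at 5 concentrations, incubate 48 h, interpolate endpoints linearly. The concentration for 50% growth inhibition is given as GI50. TGI is the concentration that stops growth completely.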

Tests used:
Experiment in all cases: NCI tumour cell line growth inhibition, 48 h
MCF7 breast = test system: MCF7 breast
NCI/ADR-RES ovarian = test system: NCI/ADR-RES ovarian
T-47D breast = test system: T-47D breast
PC-3 prostate = test system: PC-3 prostate
MDA-MB-231 breast = test system: MDA-MB-231 breast

SMILES	GI50 (MCF7 breast)	TGI (MCF7 breast)	GI50 (NCI/ADR-RES ovarian)	TGI (NCI/ADR-RES ovarian)	GI50 (T-47D breast)	TGI (T-47D breast)	GI50 (PC-3 prostate)	TGI (PC-3 prostate)	GI50 (MDA-MB-231 breast)	TGI (MDA-MB-231 breast)
COc1ccc(-c2ccc(-c3ccc(C(=N)N)o3)o2)cc1	0.325 µM	1.57 µM	1.88 µM	10.1 µM	1.53 µM	4.07 µM	1.86 µM	7.07 µM	1.9 µM	4.28 µM
O=C1c2ccccc2-c2c1c1ccccc1c(=O)n2CCCn1ccnc1	0.902 µM	> 100 µM	1.81 µM	6.09 µM	3.28 µM	> 100 µM	2.04 µM	> 100 µM	2.08 µM	5.8 µM
COc1cc(-c2nc(SCCC(C)C)nc(Nc3ccc(S(N)(=O)=O)cc3)c2C#N)cc(OC)c1OC	3.19 µM	> 100 µM	3.03 µM	> 100 µM	2.26 µM	> 100 µM	2.72 µM	> 100 µM	2.19 µM	7.8 µM
CCNC(=O)O[C@H]1CN[C@H](C#Cc2cc3ncnc(Nc4ccc(OCc5cccc(F)c5)c(Cl)c4)c3s2)C1	8.95 µM	> 25 µM	6.19 µM	> 25 µM	1.49 µM	> 25 µM	5.93 µM	> 25 µM	4.35 µM	> 16 µM
O=c1c(-c2ccccc2)coc2cc(OC/C(=N/O)c3ccccc3)ccc12	23.3 µM	47.1 µM	17.8 µM	60 µM	15.3 µM	96.7 µM	17.4 µM	46 µM	18.2 µM	43.7 µM
O=C1C(=O)c2cccnc2-c2ncccc21	0.232 µM	0.554 µM	0.0898 µM	0.281 µM	0.205 µM	0.461 µM	0.208 µM	1.27 µM	0.14 µM	0.503 µM
O=C1C(Cl)=C(NCc2ccco2)C(=O)c2ccccc21	2.39 µM	> 27.9 µM	31.2 µM	> 100 µM	10.2 µM	73.7 µM	33.6 µM	> 100 µM	18.4 µM	> 81.5 µM
C=C1CC2(OC1=O)C(=O)Nc1ccccc12 (stereo not given)	2.14 µM	6.17 µM	2.86 µM	11.2 µM	1.13 µM	2.92 µM	5.26 µM	18.8 µM	4.62 µM	17 µM
CC(C)=CC1=C2C3=C(C(=O)C4(O)Oc5c(C)c6c7c(c5OC24C)[C@@H](C)CC[C@@H]7[C@@H](C)C[C@H]6C=C(C)C)C(C)CCC3C(C)C1 (stereo not given in full)	> 100 µM	> 100 µM	> 100 µM	> 100 µM			> 100 µM	> 100 µM	> 100 µM	> 100 µM
OCC#Cc1ccccc1C#CCCCCCC#Cc1ccccc1C#CCO	18.5 µM	40.2 µM	18.8 µM	36.7 µM	16.9 µM	32.3 µM	18.1 µM	38.8 µM	17.2 µM	32.6 µM
CSc1nc(SC)c2c(CO)c(Br)n(Cc3ccccc3)c2n1		> 100 µM		> 100 µM		74.2 µM		> 100 µM		36.5 µM
O=C1c2ccccc2S(=O)(=O)c2cc(-c3nn[nH]n3)ccc21		> 100 µM		> 100 µM		> 100 µM		> 100 µM		> 100 µM
CC12CCC(Br)C(C)(C)C1CC=C1C(=O)OCC1O2 (stereo not given)		22.7 µM		56.9 µM		45 µM		24.2 µM		31.5 µM
C=C1C(=O)O[C@H]2[C@H]1CC/C(Cn1cc(-c3ccccc3C(F)(F)F)nn1)=C\CC[C@@]1(C)O[C@@H]21			2.99 µM	15.1 µM	1.7 µM	4.71 µM	4.32 µM	15.3 µM	1.64 µM	3.75 µM
Cc1ccc(Cl)cc1NC(=O)c1sc2nc3c(cc2c1N)C(=O)CCC3	4.67 µM	> 100 µM	5.28 µM	> 100 µM	> 100 µM	> 100 µM	4.34 µM	> 100 µM		
COC(=O)[C@@H](C)C[C@H](Cc1ccccc1)NC(=O)c1csc([C@@H](C[C@H](C(C)C)N(C)C(=O)[C@@H](NC(=O)[C@H]2CCCCN2C)C2CC2)OC(C)=O)n1		> 16.5 µM	0.0488 µM and 0.0603 µM	> 16.5 µM			0.000211 µM and 0.00165 µM	> 16.5 µM	0.00143 µM and 0.00165 µM	> 16.5 µM
CC(=O)OCc1cc2ccccc2nc1C(Br)(Br)Br		30.7 µM		44 µM		> 100 µM				44.9 µM
